Earlier results as cited in US11559045B2, “Synergistic mixture for inducing hygienic behavior in honey bees, and related compositions and methods” (University of North Carolina at Greensboro, priority 2019, dated 2023).

Tested on: honey bees
Conditions: previously shown (US 2018/0177160; Nazzi et al. 2004)

SMILES	induction of hygienic behavior in honey bees
CCCCCCCCC/C=C\CCCCCCCCCCCCCCCCCCCCCC [Compound (I), (Z)-10-tritriacontene]	induce hygienic behavior
CCCCC/C=C\CCCCCCCC [Compound (IV), (Z)-6-pentadecene]	induce hygienic behavior
